Data from ChEMBL document CHEMBL1141023, “DNA gyrase (GyrB)/topoisomerase IV (ParE) inhibitors: synthesis and antibacterial activity” (Bioorg Med Chem Lett, 2009).
Values after ≈ are worked out from the molar mass of the structure shown.

System: Staphylococcus aureus
Assay: Antibacterial activity against Staphylococcus aureus ATCC 29213
Assay type: functional

SMILES | MIC
CCNC(=O)Nc1nc2cc(-c3cccnc3)cc(-n3ccnc3)n2n1 | 32 µg/mL (≈ 91.9 µM)
CCNC(=O)Nc1nc2cc(-c3cccnc3)cc(C(=O)OC)n2n1 | > 256 µg/mL
CCNC(=O)Nc1nc2cc(-c3cccnc3)cc(-c3cccc(OC)c3)n2n1 | > 128 µg/mL
CCNC(=O)Nc1nc2cc(-c3cccnc3)cc(-c3cccc(C(N)=O)c3)n2n1 | > 256 µg/mL
CCNC(=O)Nc1nc2cc(-c3cccnc3)cc(-c3cccnc3)n2n1 | > 256 µg/mL
CCNC(=O)Nc1cn2ccc(-c3cccnc3)cc2n1 | 32 µg/mL (≈ 114 µM)
CCNC(=O)Nc1nc2cc(-c3cccnc3)cc(-c3cn[nH]c3)n2n1 | > 256 µg/mL
CCNC(=O)Nc1nc2cc(-c3cccnc3)cc(-n3cncn3)n2n1 | 16 µg/mL (≈ 45.8 µM)
CCNC(=O)Nc1nc2cc(-c3cccnc3)cc(-c3ccccc3F)n2n1 | > 256 µg/mL
CCNC(=O)Nc1nc2cc(-c3cccnc3)cc(-c3ccc(O)cc3)n2n1 | > 256 µg/mL
CCNC(=O)Nc1nc2cc(-c3cccnc3)cc(C(=O)NC)n2n1 | 8 µg/mL (≈ 23.6 µM)
CCNC(=O)Nc1nc2cc(-c3cccnc3)cc(C(=O)O)n2n1 | > 256 µg/mL
CCNC(=O)Nc1nc2cc(-c3cccnc3)cc(C(N)=O)n2n1 | 32 µg/mL (≈ 98.4 µM)
CCNC(=O)Nc1nc2cc(-c3cccnc3)cc(-c3cccc(N(C)C)c3)n2n1 | > 256 µg/mL
CCNC(=O)Nc1nc2cc(-c3cccnc3)cc(-c3ccccn3)n2n1 | > 256 µg/mL
CCNC(=O)Nc1nc2cc(-c3cccnc3)cc(-c3ccccc3)n2n1 | > 256 µg/mL

System: Escherichia coli
Assay: Antibacterial activity against efflux pump mutant expressing Escherichia coli ATCC N43
Assay type: functional

SMILES | MIC
CCNC(=O)Nc1nc2cc(-c3cccnc3)cc(-n3ccnc3)n2n1 | 32 µg/mL (≈ 91.9 µM)
CCNC(=O)Nc1nc2cc(-c3cccnc3)cc(C(=O)OC)n2n1 | > 256 µg/mL
CCNC(=O)Nc1nc2cc(-c3cccnc3)cc(-c3cccc(OC)c3)n2n1 | > 128 µg/mL
CCNC(=O)Nc1nc2cc(-c3cccnc3)cc(-c3cccc(C(N)=O)c3)n2n1 | > 256 µg/mL
CCNC(=O)Nc1nc2cc(-c3cccnc3)cc(-c3cccnc3)n2n1 | > 256 µg/mL
CCNC(=O)Nc1cn2ccc(-c3cccnc3)cc2n1 | 32 µg/mL (≈ 114 µM)
CCNC(=O)Nc1nc2cc(-c3cccnc3)cc(-c3cn[nH]c3)n2n1 | > 256 µg/mL
CCNC(=O)Nc1nc2cc(-c3cccnc3)cc(-n3cncn3)n2n1 | 32 µg/mL (≈ 91.6 µM)
CCNC(=O)Nc1nc2cc(-c3cccnc3)cc(-c3ccccc3F)n2n1 | > 256 µg/mL
CCNC(=O)Nc1nc2cc(-c3cccnc3)cc(-c3ccc(O)cc3)n2n1 | > 128 µg/mL
CCNC(=O)Nc1nc2cc(-c3cccnc3)cc(C(=O)NC)n2n1 | 8 µg/mL (≈ 23.6 µM)
CCNC(=O)Nc1nc2cc(-c3cccnc3)cc(C(=O)O)n2n1 | > 256 µg/mL
CCNC(=O)Nc1nc2cc(-c3cccnc3)cc(C(N)=O)n2n1 | 8 µg/mL (≈ 24.6 µM)
CCNC(=O)Nc1nc2cc(-c3cccnc3)cc(-c3cccc(N(C)C)c3)n2n1 | > 256 µg/mL
CCNC(=O)Nc1nc2cc(-c3cccnc3)cc(-c3ccccn3)n2n1 | > 256 µg/mL
CCNC(=O)Nc1nc2cc(-c3cccnc3)cc(-c3ccccc3)n2n1 | 32 µg/mL (≈ 89.3 µM)

System: not listed separately
Assay: Inhibition of Escherichia coli GyrB ATPase activity assessed as inorganic phosphate release by malachite green complex formation assay

SMILES | IC50
CCNC(=O)Nc1nc2cc(-c3cccnc3)cc(-n3ccnc3)n2n1 | 1150 nM
CCNC(=O)Nc1nc2cc(-c3cccnc3)cc(C(=O)OC)n2n1 | 1300 nM
CCNC(=O)Nc1nc2cc(-c3cccnc3)cc(-c3cccc(OC)c3)n2n1 | 510 nM
CCNC(=O)Nc1nc2cc(-c3cccnc3)cc(-c3cccc(C(N)=O)c3)n2n1 | 1010 nM
CCNC(=O)Nc1nc2cc(-c3cccnc3)cc(-c3cccnc3)n2n1 | 610 nM
CCNC(=O)Nc1cn2ccc(-c3cccnc3)cc2n1 | 390 nM
CCNC(=O)Nc1nc2cc(-c3cccnc3)cc(-c3cn[nH]c3)n2n1 | 200 nM
CCNC(=O)Nc1nc2cc(-c3cccnc3)cc(-n3cncn3)n2n1 | 1430 nM
CCNC(=O)Nc1nc2cc(-c3cccnc3)cc(-c3ccccc3F)n2n1 | 1520 nM
CCNC(=O)Nc1nc2cc(-c3cccnc3)cc(-c3ccc(O)cc3)n2n1 | 350 nM
CCNC(=O)Nc1nc2cc(-c3cccnc3)cc(C(=O)NC)n2n1 | 640 nM
CCNC(=O)Nc1nc2cc(-c3cccnc3)cc(C(=O)O)n2n1 | 2800 nM
CCNC(=O)Nc1nc2cc(-c3cccnc3)cc(C(N)=O)n2n1 | 640 nM
CCNC(=O)Nc1nc2cc(-c3cccnc3)cc(-c3cccc(N(C)C)c3)n2n1 | 840 nM
CCNC(=O)Nc1nc2cc(-c3cccnc3)cc(-c3ccccn3)n2n1 | 890 nM
CCNC(=O)Nc1nc2cc(-c3cccnc3)cc(-c3ccccc3)n2n1 | 150 nM

System: Enterococcus faecalis
Assay: Antibacterial activity against Enterococcus faecalis ATCC 29212
Assay type: functional

SMILES | MIC
CCNC(=O)Nc1nc2cc(-c3cccnc3)cc(-n3ccnc3)n2n1 | 32 µg/mL (≈ 91.9 µM)
CCNC(=O)Nc1nc2cc(-c3cccnc3)cc(C(=O)OC)n2n1 | > 256 µg/mL
CCNC(=O)Nc1nc2cc(-c3cccnc3)cc(-c3cccc(OC)c3)n2n1 | > 128 µg/mL
CCNC(=O)Nc1nc2cc(-c3cccnc3)cc(-c3cccc(C(N)=O)c3)n2n1 | > 256 µg/mL
CCNC(=O)Nc1nc2cc(-c3cccnc3)cc(-c3cccnc3)n2n1 | > 256 µg/mL
CCNC(=O)Nc1cn2ccc(-c3cccnc3)cc2n1 | 32 µg/mL (≈ 114 µM)
CCNC(=O)Nc1nc2cc(-c3cccnc3)cc(-c3cn[nH]c3)n2n1 | 8 µg/mL (≈ 23 µM)
CCNC(=O)Nc1nc2cc(-c3cccnc3)cc(-n3cncn3)n2n1 | 16 µg/mL (≈ 45.8 µM)
CCNC(=O)Nc1nc2cc(-c3cccnc3)cc(-c3ccccc3F)n2n1 | > 256 µg/mL
CCNC(=O)Nc1nc2cc(-c3cccnc3)cc(-c3ccc(O)cc3)n2n1 | > 256 µg/mL
CCNC(=O)Nc1nc2cc(-c3cccnc3)cc(C(=O)NC)n2n1 | 4 µg/mL (≈ 11.8 µM)
CCNC(=O)Nc1nc2cc(-c3cccnc3)cc(C(=O)O)n2n1 | > 256 µg/mL
CCNC(=O)Nc1nc2cc(-c3cccnc3)cc(C(N)=O)n2n1 | 16 µg/mL (≈ 49.2 µM)
CCNC(=O)Nc1nc2cc(-c3cccnc3)cc(-c3cccc(N(C)C)c3)n2n1 | > 256 µg/mL
CCNC(=O)Nc1nc2cc(-c3cccnc3)cc(-c3ccccn3)n2n1 | 32 µg/mL (≈ 89 µM)
CCNC(=O)Nc1nc2cc(-c3cccnc3)cc(-c3ccccc3)n2n1 | 32 µg/mL (≈ 89.3 µM)

System: Streptococcus pyogenes
Assay: Antibacterial activity against Streptococcus pyogenes ATCC 51339
Assay type: functional

SMILES | MIC
CCNC(=O)Nc1nc2cc(-c3cccnc3)cc(-n3ccnc3)n2n1 | 32 µg/mL (≈ 91.9 µM)
CCNC(=O)Nc1nc2cc(-c3cccnc3)cc(C(=O)OC)n2n1 | > 256 µg/mL
CCNC(=O)Nc1nc2cc(-c3cccnc3)cc(-c3cccc(OC)c3)n2n1 | > 128 µg/mL
CCNC(=O)Nc1nc2cc(-c3cccnc3)cc(-c3cccc(C(N)=O)c3)n2n1 | > 256 µg/mL
CCNC(=O)Nc1nc2cc(-c3cccnc3)cc(-c3cccnc3)n2n1 | > 256 µg/mL
CCNC(=O)Nc1nc2cc(-c3cccnc3)cc(-c3cn[nH]c3)n2n1 | 4 µg/mL (≈ 11.5 µM)
CCNC(=O)Nc1nc2cc(-c3cccnc3)cc(-n3cncn3)n2n1 | 32 µg/mL (≈ 91.6 µM)
CCNC(=O)Nc1nc2cc(-c3cccnc3)cc(-c3ccccc3F)n2n1 | > 256 µg/mL
CCNC(=O)Nc1nc2cc(-c3cccnc3)cc(-c3ccc(O)cc3)n2n1 | > 256 µg/mL
CCNC(=O)Nc1nc2cc(-c3cccnc3)cc(C(=O)NC)n2n1 | 8 µg/mL (≈ 23.6 µM)
CCNC(=O)Nc1nc2cc(-c3cccnc3)cc(C(=O)O)n2n1 | > 256 µg/mL
CCNC(=O)Nc1nc2cc(-c3cccnc3)cc(C(N)=O)n2n1 | 16 µg/mL (≈ 49.2 µM)
CCNC(=O)Nc1nc2cc(-c3cccnc3)cc(-c3cccc(N(C)C)c3)n2n1 | > 256 µg/mL
CCNC(=O)Nc1nc2cc(-c3cccnc3)cc(-c3ccccn3)n2n1 | > 256 µg/mL
CCNC(=O)Nc1nc2cc(-c3cccnc3)cc(-c3ccccc3)n2n1 | 128 µg/mL (≈ 357 µM)
